Measured values taken from US10393633B2, “Sample fixation and stabilisation” (RNASSIST LTD., priority 2013, dated 2019).
Like-named read-outs stand apart in the source and are kept apart here.

Experiments:
[1] = Solid or liquid state of the mixtures at 24° C. / 100° C.; format: physicochemical; conditions: for Room temperature (24° C.) DES liquid on mixing with Choline chloride: 1:2 mol:mol proportion
RNA in rat tissue = experiment: RNA stabilisation in animal tissue by DES mixtures, 37° C. 18 hours, RNA yield and gel RNA quality (Example 3, Tables 1 and 2)
Description: To 400 μl of the following DES mixtures in a 2 ml polypropylene tube was added 5-15 mg of rat tissue (frozen tissue stock), following a 20 minute fixation step the sample was incubated at 37° C. for 18 hours prior to RNA extraction/purification using a RNeasy Micro kit (Cat. No. 74004, Qiagen, Germany). Whether the DES mixture was a solid or liquid at room temperature, the RNA yield following extraction and the RNA quality on a scale of 1-10 (with 0 indicating no stabilisation and 10 indicating no degradation, compared with the RNA quality of immediately extracted RNA from a fresh rat liver tissue sample=10).

RNA of guanidine lysate = experiment: RNA yields from Guanidine/Choline chloride:Trifluoroacetamide mixtures in the absence of ethanol for binding (Example 30, Table 11); set-up: species or system mouse; conditions: no ethanol
[2] = 0 highly degraded to 10 highest quality, 18S/28S rRNA on agarose gel, 37° C. 18 hours
[3] = Table 1, solid or liquid at room temperature

Compound	Room temperature (24° C.) DES liquid on mixing with Choline chloride [1]	further results
CN1CCN(C)C1=O [1,3-Dimethyl-2-imidazolidone]	could not be prepared	
c1ccc(Cn2ccnc2)cc1 [1-Benzylimidazole]	could not be prepared	
CCN1CCCC1=O [1-Ethyl-2-pyrrol]	could not be prepared	
O=CN1CCOCC1 [4-Formyl morpholine]	could not be prepared	
CC(=O)CCC(C)=O [Acetonyl acetone]	could not be prepared	
N.N.N.O=P(O)(O)O [Ammonium phosphate]		Formation of room temperature DES liquids by ammonium salts [1]: not capable of forming room temperature DES liquids
C[N+](C)(C)CC(=O)O [Betaine:Water (Sat'd), Betaine, reference compound]		RNA Quality 0-10 (RNA in rat tissue; [2]): 0; Liquid at 24° C. [1, 3]: Yes
C[N+](C)(C)CCO.[Cl-] [Choline chloride:Water (6M), Choline chloride, reference compound]		RNA Quality 0-10 (RNA in rat tissue): 3; Liquid at 24° C. [1]: Saturated
O=C1OCCO1 [Ethylene carbonate]	could not be prepared	
CCn1ccnc1 [N-Ethylimidazole]	could not be prepared	
NC(=O)C(N)=O [Oxamide]	could not be prepared	
CC(C)(C)C(N)=O [Pivalamide]	could not be prepared	
O=C(O)[C@@H]1CCCN1 [Proline]	could not be prepared	
NC(=O)C(F)(F)F [Trifluoroacetamide]		RNA yield compared with Choline chloride:Trifluoroacetamide dissolved in Buffer RLT (1:1 wt:wt) (RNA of guanidine lysate): 15%
NC(N)=O [Water:Urea (5M), Urea, reference compound]		RNA Quality 0-10 (RNA in rat tissue; [2]): 0; Liquid at 24° C. [1, 3]: Saturated
